# Laboratory results reported in patent publication US20100255580A1, “Differentiation of Human Embryonic Stem Cells” (LIFESCCAN, INC., priority 2007, published 2010).
# Tested on: H9 embryonic stem cells
# Type: cell-based, human
# Conditions: low serum
# Method: Controls for each group included cells plated on […]-coated dishes and cultured in MEF-conditioned medium or cells plated on MEFs and cultured in ES medium. All groups contained three biological replicates and each biological replicate was repeated on two separate gene chips.
# Sample preparation, hybridization, and image analysis were performed according to the Affymetrix Human Genome U133 Plus 2.0 Array. Following normalization and a log transformation, data analysis was performed using OmniViz® software (MA) and […] (VizXLabs, WA). Significant differences in gene expression between the samples were evaluated using analysis of variance and an F-test with adjusted P-value (Benjamini and
# Hochberg correction) of ≦b 0.05. Only genes with a present call in at least one group were included in the analysis.
substance,measurement,setting,value
Activin A: a member of the TGFβ superfamily; R&D Systems; Group 2 = Activin A (100 ng/ml),"log intensity, nudix (nucleoside diphosphate linked moiety X)-type motif 4",on MATRIGEL,2.095
same,"log intensity, olfactory receptor, family 52, subfamily A, member 1 (OR52A1)",on MATRIGEL,−0.3096
same,"log intensity, oxoglutarate dehydrogenase (lipoamide) (OGDH)",on MATRIGEL,−0.03259
same,"log intensity, partial LHX9 gene for LIM-homeobox 9, 3UTR",on MATRIGEL,−2.2486
same,"log intensity, partial mRNA for putative nuclear factor",on MATRIGEL,1.552
same,"log intensity, phosphatidylinositol-4-phosphate 5-kinase, type I, beta (PIP5K1B)",on MATRIGEL,1.349
same,"log intensity, phosphofructokinase, liver (PFKL)",on MATRIGEL,2.039
same,"log intensity, pilin-like transcription factor (PILB)",on MATRIGEL,3.145
same,"log intensity, pleiomorphic adenoma gene-like 1",on MATRIGEL,−0.6468
same,"log intensity, plexin A2",on MATRIGEL,0.9305
same,"log intensity, polycythemia rubra vera 1; cell surface receptor (PRV1)",on MATRIGEL,−1.196
same,"log intensity, porcupine (MG61)",on MATRIGEL,1.518
same,"log intensity, protease, serine, 4 (trypsin 4, brain)",on MATRIGEL,−0.3456
same,"log intensity, protein S (alpha) (PROS1)",on MATRIGEL,0.5776
same,"log intensity, protocadherin 10",on MATRIGEL,1.767
same,"log intensity, putative 47 kDa protein (r448)",on MATRIGEL,−0.1239
same,"log intensity, putative 47 kDa protein (r770)",on MATRIGEL,0.1565
same,"log intensity, putative sterol reductase SR-1 (TM7SF2)",on MATRIGEL,1.669
same,"log intensity, ras homolog gene family, member B",on MATRIGEL,−0.1231
same,"log intensity, receptor tyrosine kinase-like orphan receptor 2 (ROR2)",on MATRIGEL,1.533
same,"log intensity, regulator of G protein signalling 5 (RGS5)",on MATRIGEL,3.0091
same,"log intensity, ret finger protein-like 2 (RFPL2)",on MATRIGEL,−2.155
same,"log intensity, secreted apoptosis related protein 2 (SARP2)",on MATRIGEL,3.184
same,"log intensity, secreted frizzled-related protein 1",on MATRIGEL,1.649
same,"log intensity, sialyltransferase (STHM)",on MATRIGEL,−0.6871
same,"log intensity, signal transducer and activator of transcription 3 (acute-phase response factor)",on MATRIGEL,−0.8373
same,"log intensity, singed (Drosophila)-like (sea urchin fascin homolog like) (SNL)",on MATRIGEL,4.233
same,"log intensity, sodium dependent phosphate transporter isoform NaPi-IIb",on MATRIGEL,−0.3971
same,"log intensity, solute carrier (SLC25A18)",on MATRIGEL,0.4037
same,"log intensity, solute carrier family 9 (sodiumhydrogen exchanger), isoform 5 (SLC9A5)",on MATRIGEL,0.04749
same,"log intensity, stanniocalcin 1 (STC1), mRNA",on MATRIGEL,2.394
same,"log intensity, stanniocalcin 1 (r1113)",on MATRIGEL,2.487
same,"log intensity, testican 3 (HSAJ1454)",on MATRIGEL,−2.812
same,"log intensity, testis enhanced gene transcript (BAX inhibitor 1)",on MATRIGEL,−0.6952
same,"log intensity, thyrotropin-releasing hormone (TRH)",on MATRIGEL,−1.657
same,"log intensity, transcription factor 2, hepatic; LF-B3; variant hepatic nuclear factor (TCF2), transcript variant a",on MATRIGEL,−1.125
same,"log intensity, transcriptional activator of the c-fos promoter (CROC4)",on MATRIGEL,0.6664
same,"log intensity, transmembrane tyrosine kinase mRNA",on MATRIGEL,−0.006089
same,"log intensity, tropomodulin, clone MGC: 3643",on MATRIGEL,0.3488
same,"log intensity, tryptase, alpha",on MATRIGEL,2.991
same,"log intensity, tudor repeat associator with PCTAIRE 2",on MATRIGEL,2.158
same,"log intensity, tyrosine 3-monooxygenasetryptophan 5-monooxygenase activation protein, eta polypeptide (r705)",on MATRIGEL,2.985
same,"log intensity, tyrosine 3-monooxygenasetryptophan 5-monooxygenase activation protein, eta polypeptide (r966)",on MATRIGEL,3.483
same,"log intensity, AD036 mRNA",on MEFS,1.603
same,"log intensity, ADP-ribosylation factor 4-like (ARF4L)",on MEFS,4.48
same,"log intensity, BACE mRNA for beta-site APP cleaving enzyme I-476",on MEFS,1.446
same,"log intensity, BTB (POZ) domain containing 2 (BTBD2)",on MEFS,2.325
same,"log intensity, CXCR4 gene encoding receptor CXCR4",on MEFS,6.361
same,"log intensity, Cluster Incl. AB002344: Human mRNA for KIAA0346 gene (r901)",on MEFS,3.478
same,"log intensity, Cluster Incl. AB002344: Human mRNA for KIAA0346 gene (r941)",on MEFS,3.317
same,"log intensity, Cluster Incl. L37033: Human FK-506 binding protein homologue (FKBP38)",on MEFS,1.661
same,"log intensity, Cluster Incl. N80935: zb07g06.s1 Homo sapiens cDNA",on MEFS,2.666
same,"log intensity, ESTs (r403)",on MEFS,2.715
same,"log intensity, ESTs (r404)",on MEFS,2.276
same,"log intensity, ESTs (r405)",on MEFS,−1.711
same,"log intensity, ESTs (r442)",on MEFS,5.906
same,"log intensity, ESTs (r453)",on MEFS,−2.153
same,"log intensity, ESTs (r473)",on MEFS,0.8364
same,"log intensity, ESTs (r491)",on MEFS,−0.4453
same,"log intensity, ESTs (r522)",on MEFS,2.214
same,"log intensity, ESTs (r523)",on MEFS,0.05049
same,"log intensity, ESTs (r524)",on MEFS,2.399
same,"log intensity, ESTs (r556)",on MEFS,0.7383
same,"log intensity, ESTs (r567)",on MEFS,1.124
same,"log intensity, ESTs (r627)",on MEFS,3.973
same,"log intensity, ESTs (r741)",on MEFS,2.614
same,"log intensity, ESTs (r745)",on MEFS,3.836
same,"log intensity, ESTs (r766)",on MEFS,2.128
same,"log intensity, ESTs (r767)",on MEFS,−0.3504
same,"log intensity, ESTs (r891)",on MEFS,−0.1307
same,"log intensity, ESTs (r916)",on MEFS,1.395
same,"log intensity, ESTs (r938)",on MEFS,−0.6132
same,"log intensity, ESTs (r980)",on MEFS,0.5547
same,"log intensity, ESTs (r1021)",on MEFS,0.6436
same,"log intensity, ESTs (r1022)",on MEFS,3.471
same,"log intensity, ESTs (r1059)",on MEFS,2.077
same,"log intensity, ESTs (r1060)",on MEFS,2.463
same,"log intensity, ESTs (r1110)",on MEFS,3.792
same,"log intensity, ESTs (r1115)",on MEFS,2.521
same,"log intensity, ESTs, Highly similar to AF229172 1 class III myosin",on MEFS,0.002417
same,"log intensity, ESTs, Moderately similar to ALU4_HUMAN ALU SUBFAMILY SB2",on MEFS,−0.9837
same,"log intensity, ESTs, Moderately similar to JC4969 pig-c protein",on MEFS,−1.045
same,"log intensity, ESTs, Moderately similar to NFY-C",on MEFS,−0.2427
same,"log intensity, ESTs, Weakly similar to A46302 PTB-associated splicing factor, long form",on MEFS,2.695
same,"log intensity, ESTs, Weakly similar to ALU8_HUMAN ALU SUBFAMILY SX",on MEFS,4.578
same,"log intensity, ESTs, Weakly similar to ALUC_HUMAN",on MEFS,2.7193
same,"log intensity, ESTs, Weakly similar to ALUF_HUMAN",on MEFS,0.5876
same,"log intensity, ESTs, Weakly similar to KIAA1330 protein",on MEFS,1.182
same,"log intensity, ESTs, Weakly similar to KIAA1399 protein",on MEFS,2.8
same,"log intensity, ESTs, Weakly similar to T32252 hypothetical protein T15B7.2",on MEFS,3.333
same,"log intensity, ESTs, Weakly similar to Z132_HUMAN ZINC FINGER PROTEIN 13",on MEFS,2.122
same,"log intensity, F37Esophageal cancer-related gene-coding leucine-zipper motif (FEZ1)",on MEFS,2.104
same,"log intensity, FLICE-like inhibitory protein short form",on MEFS,4.928
same,"log intensity, GS1999full mRNA",on MEFS,0.8499
same,"log intensity, H1 histone family, member X (H1FX)",on MEFS,4.51
same,"log intensity, H2A histone family, member X",on MEFS,−0.04057
same,"log intensity, H. sapiens skeletal embryonic myosin light chain 1 (MLC1)",on MEFS,2.36
same,"log intensity, HT016 mRNA",on MEFS,2.452
same,"log intensity, Homo sapiens nudix (nucleoside diphosphate linked moiety X)-type motif (r1198)",on MEFS,6.428
same,"log intensity, Human DNA sequence from clone RP4-781L3 on chromosome 1p34.3-36.11",on MEFS,4.439
same,"log intensity, Human DNA sequence from clone RP11-446H13 on chromosome 10",on MEFS,2.12
same,"log intensity, Human MLC1emb gene for embryonic myosin alkaline light chain, promoter and exon 1",on MEFS,4.04
same,"log intensity, Human clone 23826 mRNA sequence",on MEFS,1.443
same,"log intensity, Human embryonic myosin alkali light chain (MLC1)",on MEFS,4.115
same,"log intensity, Human extracellular matrix protein 1 (ECM1)",on MEFS,1.376
same,"log intensity, Human mRNA for pro-alpha 1 (II) collagen 3end C-term.",on MEFS,2.157
same,"log intensity, Human rho GDI mRNA",on MEFS,−0.6515
same,"log intensity, KIAA0127 gene product (KIAA0127)",on MEFS,3.002
same,"log intensity, KIAA0346 protein",on MEFS,1.415
same,"log intensity, KIAA0418 gene product",on MEFS,0.03438
same,"log intensity, KIAA0761 protein",on MEFS,1.059
same,"log intensity, KIAA0882 protein",on MEFS,4.675
same,"log intensity, KIAA0918 protein",on MEFS,−0.575
same,"log intensity, KIAA1415 protein",on MEFS,1.743
same,"log intensity, KIAA1511 protein",on MEFS,1.575
same,"log intensity, Kruppel-like factor 8 (KLF8)",on MEFS,1.639
same,"log intensity, LIM homeobox protein 1 (LHX1)",on MEFS,0.08556
same,"log intensity, LYST-interacting protein LIP3",on MEFS,−0.3125
same,"log intensity, MAD (mothers against decapentaplegic, Drosophila) homolog 6 (MADH6)",on MEFS,3.5309
same,"log intensity, MYC-associated zinc finger protein (purine-binding transcription factor) (MAZ)",on MEFS,0.5113
same,"log intensity, Novel human mRNA from chromosome 22",on MEFS,3.058
same,"log intensity, PNAS-145 mRNA",on MEFS,4.2868
same,"log intensity, PRO1957 mRNA",on MEFS,4.227
same,"log intensity, PTPRF interacting protein, binding protein 2 (liprin beta 2)",on MEFS,2.773
same,"log intensity, Pig10 (PIG10)",on MEFS,1.098
same,"log intensity, SG2NA beta isoform",on MEFS,−1.534
same,"log intensity, Similar to B9 protein, clone MGC: 11339",on MEFS,2.292
same,"log intensity, Similar to RIKEN cDNA C330013D18 gene, clone MGC: 11226",on MEFS,1.427
same,"log intensity, Similar to lipase protein, clone MGC: 2843",on MEFS,0.9617
same,"log intensity, X75208 H. sapiens HEK2 mRNA for protein tyrosine kinase receptor",on MEFS,1.082
same,"log intensity, adaptor-related protein complex 3, beta 2 subunit (AP3B2)",on MEFS,1.074
same,"log intensity, adenylate cyclase 8 (brain) (ADCY8)",on MEFS,−2.261
same,"log intensity, alpha 2,8-sialyltransferase",on MEFS,1.055
same,"log intensity, aminolevulinate, delta-, dehydratase, clone MGC: 5057",on MEFS,2.769
same,"log intensity, annexin A6 (ANXA6), transcript variant 1",on MEFS,4.5
same,"log intensity, apolipoprotein A-II (APOA2)",on MEFS,4.759
same,"log intensity, apolipoprotein C-I (APOC1)",on MEFS,5.51
same,"log intensity, arrestin, beta 1 (ARRB1), transcript variant 1",on MEFS,−0.4092
